Laboratory results: patent US9096615B2, “Bridged bicyclic amino thiazine dioxide compounds as inhibitors of beta-secretase and methods of use thereof” (AMGEN INC., priority 2013, dated 2015)

Experiments:
[1] = system: Aβ40 in conditioned medium of cells stably expressing Amyloid Precursor Protein (APP); assay: In vitro BACE cell-based assay (HEK cell assay, Aβ40 sandwich ELISA); details: Homo sapiens, HEK293; average IC50; read-out: BACE1 cell assay IC50
Method in brief: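 IC50 was derived from percent-of-control Aβ40 against concentration, with Aβ40 quantified by time-resolved fluorescence ELISA (pAb40/6E10-biotin, 4 °C incubations). Supernatants were sampled after 24 h of compound exposure (10 points, starting 100 or 10 μM, 0.1% DMSO) of cells stably expressing APP.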

[2] = molecular target: BACE1 (Homo sapiens, UniProt P56817); assay: In vitro enzymatic BACE FRET assay; assay type: biochemical; details: average IC50; read-out: BACE1 Enzyme assay IC50
Method in brief: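 Fluorescence (excitation 488 nm, […]) from cleavage of quenched peptide substrate (50 nM), reaction run 1 h after 1 h enzyme–inhibitor pre-incubation, then neutralised with Tris. Conditions: 0.2 nM enzyme, pH 4.2 acetate 0.05 M, 10% DMSO final, 100 uM genapol.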

[3] = molecular target: T1, human Bace2 protein (Homo sapiens, UniProt Q9Y5Z0); assay: In vitro enzymatic BACE2 FRET assay; assay type: biochemical; details: average IC50; read-out: BACE2 Enzyme assay IC50
T1 construct: V5 (C); 6-His (C)
T1 sequence (Q9Y5Z0 63-518): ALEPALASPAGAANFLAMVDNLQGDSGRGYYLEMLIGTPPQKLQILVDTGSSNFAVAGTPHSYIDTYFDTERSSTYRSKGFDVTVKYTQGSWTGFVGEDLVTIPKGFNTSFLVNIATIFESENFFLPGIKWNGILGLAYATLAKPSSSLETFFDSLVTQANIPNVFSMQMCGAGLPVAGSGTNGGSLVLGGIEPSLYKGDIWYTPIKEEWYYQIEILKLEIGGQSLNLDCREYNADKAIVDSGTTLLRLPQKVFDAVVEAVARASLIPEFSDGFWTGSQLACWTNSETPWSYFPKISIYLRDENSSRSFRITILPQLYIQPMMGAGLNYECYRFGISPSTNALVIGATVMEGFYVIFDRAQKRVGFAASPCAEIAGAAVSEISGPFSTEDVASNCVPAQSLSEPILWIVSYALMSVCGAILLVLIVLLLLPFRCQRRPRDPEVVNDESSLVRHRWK
Protocol: In Vitro Enzymatic BACE2 FRET (Fluorescence Resonance Energy Transfer) Assay
Enzyme Assay Data in the Table 3
The assay buffer used in this screen is 0.05 M acetate, pH 4.2, 10% DMSO final, 100 uM genapol (which is a nonionic detergent, below its Critical Micelle Concentration). The Beta Secretase2 enzyme (human Bace2 protein with C-terminal V5 and 6-His tag; 0.2 nM) is pre-incubated for one hour with inhibitors, typically in about 1 uL of DMSO according to a serial dilution, are added thereto. This assay is effectively started by the addition of FRET substrate (50 nM) and the combination is incubated for one hour. Final assay concentration of about 0.64 nM. The FRET assay is terminated with by addition of Tris buffer, which raises the pH to neutrality, and the fluorescence is determined. The FRET substrate is a peptide with commercially available fluorophore and quencher, on opposite sides of the BACE cleavage site. Proteolytic cleavage of the FRET substrate releases quenching of fluorescence (excitation 488 nm and […]).

Sequence of BACE1 (P56817 46-501, species assumed): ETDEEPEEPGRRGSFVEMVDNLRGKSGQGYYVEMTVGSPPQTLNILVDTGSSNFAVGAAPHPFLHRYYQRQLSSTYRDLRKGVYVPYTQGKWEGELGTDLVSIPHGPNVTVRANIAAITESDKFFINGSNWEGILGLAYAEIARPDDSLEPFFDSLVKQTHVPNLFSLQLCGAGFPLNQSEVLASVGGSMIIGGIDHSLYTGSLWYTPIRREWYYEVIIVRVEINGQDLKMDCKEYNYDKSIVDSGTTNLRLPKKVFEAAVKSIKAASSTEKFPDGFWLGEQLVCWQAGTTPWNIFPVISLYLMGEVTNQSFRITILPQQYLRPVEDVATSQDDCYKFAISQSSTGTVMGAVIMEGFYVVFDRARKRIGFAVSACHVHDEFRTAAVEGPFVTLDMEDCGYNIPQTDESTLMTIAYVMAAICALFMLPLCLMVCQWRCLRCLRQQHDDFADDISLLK

Compound | IC50 [1] [nM] | IC50 [2] [nM] | IC50 [3] [nM]
C[C@]1(c2cc(Nc3ncnc4cc(C#N)cnc34)ccc2F)N=C(N)[C@@]2(CF)CC[C@@H]1S2(=O)=O [Example 40, 4-((3-((1S,2R,5R)-4-amino-5-(fluoromethyl)-2-methyl-8,8-dioxido-8-thia-3-azabicyclo[3.2.1]oct-3-en-2-yl)-4-fluorophenyl)amino)pyrido[3,2-d]pyrimidine-7-carbonitrile] | 35 | 8 | 22
COc1cnc2c(Nc3ccc(F)c([C@@]4(C)N=C(N)[C@@]5(CF)CC[C@@H]4S5(=O)=O)c3)nccc2n1 [Example 41, N-(3-((1S,2R,5R)-4-amino-5-(fluoromethyl)-2-methyl-8,8-dioxido-8-thia-3-azabicyclo[3.2.1]oct-3-en-2-yl)-4-fluorophenyl)-2-methoxypyrido[3,4-b]pyrazin-5-amine] | 15 | 9 | 10
COc1cnc(C(=O)Nc2ccc(F)c([C@@]3(C)N=C(N)[C@@]4(CF)CC[C@@H]3S4(=O)=O)c2)c(C)c1 [Example 42, N-(3-((1S,2R,5R)-4-amino-5-(fluoromethyl)-2-methyl-8,8-dioxido-8-thia-3-azabicyclo[3.2.1]oct-3-en-2-yl)-4-fluorophenyl)-5-methoxy-3-methyl-2-pyridinecarboxamide] | 30 | 13 | 3
C#CCOc1ccc(C(=O)Nc2ccc(F)c([C@@]3(C)N=C(N)[C@@]4(CF)CC[C@@H]3S4(=O)=O)c2)nc1 [Example 52, N-(3-((1S,2R,5R)-4-amino-5-(fluoromethyl)-2-methyl-8,8-dioxido-8-thia-3-azabicyclo[3.2.1]oct-3-en-2-yl)-4-fluorophenyl)-5-(2-propyn-1-yloxy)-2-pyridinecarboxamide] | 4 | 1 | 18
COc1cnc2c(Nc3ccc(F)c([C@@]4(C)N=C(N)[C@@]5(CF)CC[C@@H]4S5(=O)=O)c3)nccc2c1 [Example 56, N-(3-((1S,2R,5R)-4-amino-5-(fluoromethyl)-2-methyl-8,8-dioxido-8-thia-3-azabicyclo[3.2.1]oct-3-en-2-yl)-4-fluorophenyl)-3-methoxy-1,7-naphthyridin-8-amine] | 16.7 | 18.8 | 18.5
C#CCOc1cnc(C(=O)Nc2ccc(F)c([C@@]3(C)N=C(N)[C@@]4(CF)CC[C@@H]3S4(=O)=O)c2)c(C)n1 [Example 59, N-(3-((1S,2R,5R)-4-amino-5-(fluoromethyl)-2-methyl-8,8-dioxido-8-thia-3-azabicyclo[3.2.1]oct-3-en-2-yl)-4-fluorophenyl)-3-methyl-5-(2-propyn-1-yloxy)-2-pyrazinecarboxamide] | 1 | 1 | 3
COc1cnc(C(=O)Nc2ccc(F)c([C@@]3(C)N=C(N)[C@@]4(C)CC[C@@H]3S4(=O)=O)c2)cn1 [Example 61, N-(3-((1S,2R,5R)-4-amino-2,5-dimethyl-8,8-dioxido-8-thia-3-azabicyclo[3.2.1]oct-3-en-2-yl)-4-fluorophenyl)-5-methoxy-2-pyrazinecarboxamide] | 2 | 5 | 7
COc1cnc(C(=O)Nc2ccc(F)c([C@@]3(C)N=C(N)[C@@]4(CF)CC[C@@H]3S4(=O)=O)c2)c(C)n1 [Example 76, N-(3-((1S,2R,5R)-4-amino-5-(fluoromethyl)-2-methyl-8,8-dioxido-8-thia-3-azabicyclo[3.2.1]oct-3-en-2-yl)-4-fluorophenyl)-5-methoxy-3-methyl-2-pyrazinecarboxamide] | 8 | 10 | 4
C[C@]1(c2cc(NC(=O)c3ccc(Cl)cn3)ccc2F)N=C(N)[C@@]2(CF)CC[C@@H]1S2(=O)=O [Example 77, N-(3-((1S,2R,5R)-4-amino-5-(fluoromethyl)-2-methyl-8,8-dioxido-8-thia-3-azabicyclo[3.2.1]oct-3-en-2-yl)-4-fluorophenyl)-5-chloro-2-pyridinecarboxamide] | 3 | 3 | 1
COc1cnc2c(Nc3ccc(F)c([C@@]4(C)N=C(N)[C@@]5(C)CC[C@@H]4S5(=O)=O)c3)ncc(F)c2c1 [Example 78, N-(3-((1S,2R,5R)-4-amino-2,5-dimethyl-8,8-dioxido-8-thia-3-azabicyclo[3.2.1]oct-3-en-2-yl)-4-fluorophenyl)-5-fluoro-3-methoxy-1,7-naphthyridin-8-amine] | 12 | 3 | 5
COc1cnc2c(Nc3ccc(F)c([C@@]4(C)N=C(N)[C@@]5(C)CC[C@@H]4S5(=O)=O)c3)nccc2n1 [Example 80, N-(3-((1S,2R,5R)-4-amino-2,5-dimethyl-8,8-dioxido-8-thia-3-azabicyclo[3.2.1]oct-3-en-2-yl)-4-fluorophenyl)-2-methoxypyrido[3,4-b]pyrazin-5-amine] | 6 | 8 | 15
CC#CCOc1cnc(C(=O)Nc2ccc(F)c([C@@]3(C)N=C(N)[C@@]4(C)CC[C@@H]3S4(=O)=O)c2)cn1 [Example 82, N-(3-((1S,2R,5R)-4-amino-2,5-dimethyl-8,8-dioxido-8-thia-3-azabicyclo[3.2.1]oct-3-en-2-yl)-4-fluorophenyl)-5-(2-butyn-1-yloxy)-2-pyrazinecarboxamide] | 0.07 | 0.5 | 3
Cc1cc(Cl)cnc1C(=O)Nc1ccc(F)c([C@@]2(C)N=C(N)[C@@]3(CF)CC[C@@H]2S3(=O)=O)c1 [Example 88, N-(3-((1S,2R,5R)-4-amino-5-(fluoromethyl)-2-methyl-8,8-dioxido-8-thia-3-azabicyclo[3.2.1]oct-3-en-2-yl)-4-fluorophenyl)-5-chloro-3-methyl-2-pyridinecarboxamide] | 5 | 3 | 0.8
Cc1cc(C#N)cnc1C(=O)Nc1ccc(F)c([C@@]2(C)N=C(N)[C@@]3(CF)CC[C@@H]2S3(=O)=O)c1 [Example 96, N-(3-((1S,2R,5R)-4-amino-5-(fluoromethyl)-2-methyl-8,8-dioxido-8-thia-3-azabicyclo[3.2.1]oct-3-en-2-yl)-4-fluorophenyl)-5-cyano-3-methyl-2-pyridinecarboxamide] | 2 | 2 | 1
COc1cnc2c(Nc3ccc(F)c([C@@]4(C)N=C(N)[C@@]5(CF)CC[C@@H]4S5(=O)=O)c3)ncnc2c1 [Example 97, N-(3-((1S,2R,5R)-4-amino-5-(fluoromethyl)-2-methyl-8,8-dioxido-8-thia-3-azabicyclo[3.2.1]oct-3-en-2-yl)-4-fluorophenyl)-7-methoxypyrido[3,2-d]pyrimidin-4-amine] | 7 | 7 | 20
C[C@]1(c2cc(Nc3nccc4cc(C#N)cnc34)ccc2F)N=C(N)[C@@]2(CF)CC[C@@H]1S2(=O)=O [Example 100, 8-((3-((1S,2R,5R)-4-amino-5-(fluoromethyl)-2-methyl-8,8-dioxido-8-thia-3-azabicyclo[3.2.1]oct-3-en-2-yl)-4-fluorophenyl)amino)-1,7-naphthyridine-3-carbonitrile] | 4 | 1 | 0.6
Cc1cc(OC(F)F)cnc1C(=O)Nc1ccc(F)c([C@@]2(C)N=C(N)[C@@]3(CF)CC[C@@H]2S3(=O)=O)c1 [Example 102, N-(3-((1S,2R,5R)-4-amino-5-(fluoromethyl)-2-methyl-8,8-dioxido-8-thia-3-azabicyclo[3.2.1]oct-3-en-2-yl)-4-fluorophenyl)-5-(difluoromethoxy)-3-methyl-2-pyridinecarboxamide] | 2 | 4 | 8
C[C@]1(c2cc(Nc3nccc4nc(OCc5ncco5)cnc34)ccc2F)N=C(N)[C@@]2(CF)CC[C@@H]1S2(=O)=O [Example 104, N-(3-((1S,2R,5R)-4-amino-5-(fluoromethyl)-2-methyl-8,8-dioxido-8-thia-3-azabicyclo[3.2.1]oct-3-en-2-yl)-4-fluorophenyl)-2-(1,3-oxazol-2-ylmethoxy)pyrido[3,4-b]pyrazin-5-amine] | 0.9 | 2 | 3
